Test results: patent US20100063074A1, “Cancer Treatment Method” (priority 2004, published 2010)
Read-outs that look alike come from different tables or passages of the source.

Legend:
[1] = tested on: pancreatic cancer with distant metastases; settings: pancreatic tumors with distant metastases; cited from earlier work
EGFR and erbB2 kinases = settings: Rusnak et al., 2001b; Xia et al., 2002; cited from earlier work
A549 = assay: Cell growth inhibition IC50, A549; settings: Homo sapiens, A549, read-out: Growth Inhibition (IC50 μM)
Method: (§1) The human bladder cell lines, HT-1197, HT-1376 and T24, and the ovarian cell line, SKOV3, were obtained from the American Type Culture Collection. The cells were maintained in tissue culture flasks in RPMI 1640 (Invitrogen # 22400-089) with 10% fetal bovine serum (FBS, HyClone # SH30071.03) and were incubated at 37° Celsius in an atmosphere of 5% CO2, until plating for IC50 determination. For IC50 determination, cells were plated in the appropriate medium at 5,000 cells per well in a 96-well tissue culture dish and returned to the incubator overnight. […] Final concentrations ranged from 30 micromolar to 0.00152 micromolar. After three days of compound exposure, the growth medium was removed by aspiration. Cell biomass was estimated by staining cells in 0.1 ml per well of methylene blue (Sigma #M9140, 0.5% in 50:50, ethanol:water), followed by incubation at room temperature for at least 30 minutes. Stain was aspirated and the plates rinsed by immersion in deionized water, followed by air drying. Stain was released from cells by the addition of 0.1 ml of solubilization solution (1.0% N-lauryl sarcosine, Sodium salt, Sigma #L5121 in PBS). Plates were incubated at room temperature for 40 minutes. Absorbance was read at 620 nm in a Tecan Spectra micro-plate reader. Percent inhibition of cell growth was calculated relative to untreated control wells. […]

HCT 116 = assay: Cell growth inhibition IC50, HCT 116; settings: Homo sapiens, HCT-116, read-out: Growth Inhibition (IC50 μM)
Method: (§2) The cells were maintained in tissue culture flasks in RPMI 1640 (Invitrogen # 22400-089) with 10% fetal bovine serum (FBS, HyClone # SH30071.03) and were incubated at 37° Celsius in an atmosphere of 5% CO2, until plating for IC50 determination. For IC50 determination, cells were plated in the appropriate medium at 5,000 cells per well in a 96-well tissue culture dish and returned to the incubator overnight. […] Final concentrations ranged from 30 micromolar to 0.00152 micromolar. After three days of compound exposure, the growth medium was removed by aspiration. Cell biomass was estimated by staining cells in 0.1 ml per well of methylene blue (Sigma #M9140, 0.5% in 50:50, ethanol:water), followed by incubation at room temperature for at least 30 minutes. Stain was aspirated and the plates rinsed by immersion in deionized water, followed by air drying. Stain was released from cells by the addition of 0.1 ml of solubilization solution (1.0% N-lauryl sarcosine, Sodium salt, Sigma #L5121 in PBS). Plates were incubated at room temperature for 40 minutes. Absorbance was read at 620 nm in a Tecan Spectra micro-plate reader. Percent inhibition of cell growth was calculated relative to untreated control wells. IC50 values were interpolated using the method of Levenberg and Marquardt (Mager, 1972) and the equation: y=Vmax*[1−(x^n/(K^n+x^n))], where “K” is equal to IC50. […]

SW480 = assay: Cell growth inhibition IC50, SW480; settings: Homo sapiens, SW480, read-out: Growth Inhibition (IC50 μM)
Method: as §1

BxPC3 = assay: Cell growth inhibition IC50, BxPC3; settings: Homo sapiens, BXPC-3, read-out: Growth Inhibition (IC50 μM)
Method: as §2

[2] = tested on: locally advanced or metastatic transitional cell carcinoma of the urothelial tract
Method: Safety and efficacy assessments (independent review) were carried out at 4 and 8-week intervals respectively. Patients were also assessed at withdrawal, and followed every 2 months until death.

NCI-H747 = assay: Cell growth inhibition IC50, NCI-H747; settings: Homo sapiens, NCI-H747, read-out: Growth Inhibition (IC50 μM)
Method: as §2

HMEC = assay: Cell growth inhibition IC50, HMEC; settings: Homo sapiens, read-out: Growth Inhibition (IC50 μM)
Method: as §2

A431 = assay: Cell growth inhibition IC50, A431; settings: Homo sapiens, A-431, read-out: Growth Inhibition (IC50 μM)
Method: as §1

HFF = assay: Cell growth inhibition IC50, HFF; settings: Homo sapiens, read-out: Growth Inhibition (IC50 μM)
Method: as §1

H157 = assay: Cell growth inhibition IC50, H157; type: cell-based; settings: Homo sapiens, NCI-H157, Lung carcinoma
Method: as §2

[3] = tested on: H16 N2 (Transfected erbB2); assay: Cell growth inhibition IC50, H16 N2; settings: read-out: Growth Inhibition (IC50 μM)
Method: as §1

786O = assay: Cell growth inhibition IC50, 786O; settings: Homo sapiens, 786-0, read-out: Growth Inhibition (IC50 μM)
Method: as §1

RKO = assay: Cell growth inhibition IC50, RKO; type: cell-based; settings: Homo sapiens, Colorectal carcinoma
Method: as §2

NCI-H727 = assay: Cell growth inhibition IC50, NCI-H727; type: cell-based; settings: Homo sapiens, Lung carcinoid bronchus
Method: as §2

NCI-H322 = assay: Cell growth inhibition IC50, NCI-H322; type: cell-based; settings: NSCLC
Method: as §2

T24 = assay: Cell growth inhibition IC50 (methylene blue), T24; settings: Homo sapiens, T-24, 72 h, read-out: Growth Inhibition (IC50 μM)
Method: as §1

LNCaP = assay: Cell growth inhibition IC50, LNCaP; settings: Homo sapiens, read-out: Growth Inhibition (IC50 μM)
Method: as §1

DLD-1 = assay: Cell growth inhibition IC50, DLD-1; settings: Homo sapiens, DLD-1, read-out: Growth Inhibition (IC50 μM)
Method: as §2

HT29 = assay: Cell growth inhibition IC50, HT29; settings: Homo sapiens, HT-29, read-out: Growth Inhibition (IC50 μM)
[4] = tested on: locally advanced or metastatic TCC of the bladder
Colo 205 = assay: Cell growth inhibition IC50, Colo 205; settings: Homo sapiens, COLO 205, read-out: Growth Inhibition (IC50 μM)
SW837 = assay: Cell growth inhibition IC50, SW837; settings: Homo sapiens, SW837, read-out: Growth Inhibition (IC50 μM)
NCI-H358 = assay: Cell growth inhibition IC50, NCI-H358; settings: Homo sapiens, NCI-H358, read-out: Growth Inhibition (IC50 μM)
Method: as §2

SW620 = assay: Cell growth inhibition IC50, SW620; settings: Homo sapiens, SW-620, read-out: Growth Inhibition (IC50 μM)
PC3 = assay: Cell growth inhibition IC50, PC3; settings: Homo sapiens, PC-3, read-out: Growth Inhibition (IC50 μM)
Method: as §1

A427 = assay: Cell growth inhibition IC50, A427; type: cell-based; settings: Homo sapiens, A-427, Lung Carcinoma
Method: as §1

Calu1 = assay: Cell growth inhibition IC50, Calu1; settings: Homo sapiens, Calu-1, read-out: Growth Inhibition (IC50 μM)
Method: as §2

LS174T = assay: Cell growth inhibition IC50, LS174T; type: cell-based; settings: Homo sapiens, Colon adenocarcinoma
Method: as §2

solid tumors = settings: for time remained on lapatinib, SD patient: progressing on previous therapy
NCI-H2009 = assay: Cell growth inhibition IC50, NCI-H2009; settings: Homo sapiens, NCI-H2009, read-out: Growth Inhibition (IC50 μM)
Method: as §2

SKOV3 = assay: Cell growth inhibition IC50 (methylene blue), SKOV3; settings: Homo sapiens, SK-OV-3, 72 h, read-out: Growth Inhibition (IC50 μM)
Method: as §1

CaLu3 = assay: Cell growth inhibition IC50, CaLu3; settings: Homo sapiens, Calu-3, read-out: Growth Inhibition (IC50 μM)
Method: as §1

NCI-H460 = assay: Cell growth inhibition IC50, NCI-H460; type: cell-based; settings: Homo sapiens, Lung Carcinoma
Method: as §1

H1197 = assay: Cell growth inhibition IC50 (methylene blue), H1197; settings: Homo sapiens, 72 h, read-out: Growth Inhibition (IC50 μM)
Method: The cells were maintained in tissue culture flasks in RPMI 1640 (Invitrogen # 22400-089) with 10% fetal bovine serum (FBS, HyClone # SH30071.03) and were incubated at 37° Celsius in an atmosphere of 5% CO2, until plating for IC50 determination. For IC50 determination, cells were plated in the appropriate medium at 5,000 cells per well in a 96-well tissue culture dish and returned to the incubator overnight. […] Final concentrations ranged from 30 micromolar to 0.00152 micromolar. After three days of compound exposure, the growth medium was removed by aspiration. Cell biomass was estimated by staining cells in 0.1 ml per well of methylene blue (Sigma #M9140, 0.5% in 50:50, ethanol:water), followed by incubation at room temperature for at least 30 minutes. Stain was aspirated and the plates rinsed by immersion in deionized water, followed by air drying. Stain was released from cells by the addition of 0.1 ml of solubilization solution (1.0% N-lauryl sarcosine, Sodium salt, Sigma #L5121 in PBS). Plates were incubated at room temperature for 40 minutes. Absorbance was read at 620 nm in a Tecan Spectra micro-plate reader. Percent inhibition of cell growth was calculated relative to untreated control wells. IC50 values were interpolated using the method of Levenberg and Marquardt (Mager, 1972) and the equation: y=Vmax*[1−(x^n/(K^n+x^n))], where “K” is equal to IC50.

SKMEL28 = assay: Cell growth inhibition IC50, SKMEL28; type: cell-based; settings: Homo sapiens, SK-MEL-28, Melanoma
Method: as §2

Lovo = assay: Cell growth inhibition IC50, Lovo; type: cell-based; settings: Homo sapiens, Colorectal carcinoma
Method: as §1

H1376 = assay: Cell growth inhibition IC50 (methylene blue), H1376; settings: Homo sapiens, 72 h, read-out: Growth Inhibition (IC50 μM)
Method: as §1

[5] = 1250 mg once daily, interim analysis of 30 patients
[6] = 1250 mg daily oral, 59 patients, investigator reported
[7] = Head and Neck, 9 patients, only patients receiving lapatinib more than 4 months
[8] = QD administration, heavily pre-treated population

Structure (SMILES): O=c1[nH]cc(F)c(=O)[nH]1 [FU, fluorouracil]
- clinical benefit response (cancer-related symptoms) [1]: 4.8%
- overall survival [1]: 4.4 months

Structure (SMILES): CS(=O)(=O)CCNCc1ccc(-c2ccc3ncnc(Nc4ccc(OCc5cccc(F)c5)c(Cl)c4)c3c2)o1 [GW572016, N-{3-chloro-4-[(3-fluorobenzyl)oxy]phenyl}-6-[5-({[2-(methanesulphonyl)ethyl]amino}methyl)-2-furyl]-4-quinazolinamine]
- kinase inhibition in human xenograft studies (EGFR and erbB2 kinases): dose-dependent kinase inhibition

Structure (SMILES): CS(=O)(=O)CCNCc1ccc(-c2ccc3ncnc(Nc4ccc(OCc5cccc(F)c5)c(Cl)c4)c3c2)o1.Cc1ccc(S(=O)(=O)O)cc1 [GW572016F, N-{3-Chloro-4-[(3-fluorobenzyl)oxy]phenyl}-6-[5-({[2-(methanesulphonyl)ethyl]amino}methyl)-2-furyl]-4-quinazolinamine ditosylate monohydrate]
- IC50 (A549): 4.98 µM
- IC50 (HCT 116): 5.87 µM
- IC50 (SW480): 6.86 µM
- IC50 (BxPC3): 1.41 µM
- Clinical benefit (≧6 months SD) [2, 5]: 10%
- PR confirmed at 8 weeks (number) [2, 5]: one
- patients with progressive disease [2, 5]: 17%
- patients with tumour reduction qualified as partial responses (PR) at the initial assessment [2, 5]: 10%
- activity (in words) ([2]; second-line oral treatment): promising activity
- IC50 (NCI-H747): 1.49 µM
- IC50 (HMEC): 1.34 µM
- IC50 (A431): 0.23 µM
- IC50 (HFF): 6.45 µM
- IC50 (H157): 5.98 µM
- IC50 [3]: 0.03 µM
- IC50 (786O): 1.82 µM
- IC50 (RKO): 5.48 µM
- IC50 (NCI-H727): 7.59 µM
- IC50 (NCI-H322): 0.92 µM
- IC50 (T24): 8.22 µM
- IC50 (LNCaP): 4.69 µM
- IC50 (DLD-1): 3.63 µM
- IC50 (HT29): 5.24 µM
- patients with asymptomatic, Grade 2 decrease in cardiac ejection fraction ([4]; 1250 mg daily): One
- tolerability (in words) ([4]; 1250 mg daily): well-tolerated
- PR, independent radiologic review ([4]; 1250 mg daily oral, 59 patients, RECIST): 2%
- partial responses (PR), investigators [4, 6]: 3%
- stable disease (SD), investigators [4, 6]: 20%
- Grade 3/4 AEs: diarrhea ([4]; 1250 mg daily, Grade 3/4): 3%
- Grade 3/4 AEs: vomiting ([4]; 1250 mg daily, Grade 3/4): 7%
- Adverse events: asthenia ([4]; 1250 mg daily, all grades): 12%
- Adverse events: diarrhea ([4]; 1250 mg daily, all grades): 39%
- Adverse events: fatigue ([4]; 1250 mg daily, all grades): 10%
- Adverse events: nausea ([4]; 1250 mg daily, all grades): 27%
- Adverse events: rash ([4]; 1250 mg daily, all grades): 32%
- Adverse events: vomiting ([4]; 1250 mg daily, all grades): 22%
- median TTP ([4]; 95% CI 8.00, 11.29): 8.6 weeks
- median overall survival ([4]; 95% CI 13.14, 30.29): 17.9 weeks
- clinical benefit (CR+PR+SD≧16 weeks), independent review ([4]; assessed by independent review): 12%
- clinical benefit (CR+PR+SD≧16 weeks), investigator ([4]; assessed by investigator): 14%
- patients with cytoreduction ([4]; at week 8): 10 patients
- patients with cytostasis ([4]; at week 8): 4 patients
- patients with tumor growth up to 20% ([4]; at week 8): 10 patients
- patients with durable SD lasting 6 months ([4]; independent review): three
- patients with durable SD lasting 4 months ([4]; investigator review): six
- time on study of one patient who remains on study ([4]; one patient): > 56 weeks
- activity (in words) ([4]; relapsed, advanced or metastatic TCC of the bladder): exhibits monotherapy activity
- IC50 (Colo 205): 7.7 µM
- IC50 (SW837): 4.7 µM
- IC50 (NCI-H358): 0.27 µM
- IC50 (SW620): 6.75 µM
- IC50 (PC3): 7.15 µM
- IC50 (A427): 5.95 µM
- IC50 (Calu1): 5.51 µM
- IC50 (LS174T): 1.51 µM
- median duration of SD (solid tumors; 22 SD pts): 4 mos
- interstitial pneumonitis (solid tumors; 81 patients treated): no cases
- time remained on lapatinib, SD patient (solid tumors; AUP metastatic to lung): ≥ 8 mos
- Clinical Response, SD (patients) (solid tumors; AUP, 6 patients, only patients receiving lapatinib more than 4 months): SD = 1
- Clinical Response, SD (patients) (solid tumors; Breast, 6 patients, only patients receiving lapatinib more than 4 months): SD = 2
- Clinical Response, SD (patients) (solid tumors; Cervical, 2 patients, only patients receiving lapatinib more than 4 months): SD = 1
- Clinical Response, SD (patients) (solid tumors; Colorectal, 27 patients, only patients receiving lapatinib more than 4 months): SD = 3
- Clinical Response, CR (patients) (solid tumors; [7]): 1
- Clinical Response, SD (patients) (solid tumors; [7]): 3
- Clinical Response, SD (patients) (solid tumors; Mesothelioma, 3 patients, only patients receiving lapatinib more than 4 months): SD = 1
- Clinical Response, SD (patients) (solid tumors; NSCLC, 7 patients, only patients receiving lapatinib more than 4 months): SD = 3
- clinical activity (in words) (solid tumors; [8]): evidence of clinical activity
- tolerability (in words) (solid tumors; [8]): well tolerated
- Clinical Response, SD (patients) (solid tumors; Renal, 6 patients, only patients receiving lapatinib more than 4 months): SD = 2
- duration of CR (solid tumors; erbB1 overexpressing head and neck squamous cell carcinoma): ≥ 16 mos
- CR (number of patients) (solid tumors; erbB1 overexpressing head and neck squamous cell carcinoma, 81 patients treated): One
- time remained on lapatinib, SD patient (solid tumors; non-small cell lung cancer): ≥ 12 mos
- patients who experienced SD (solid tumors; various tumors most overexpressing either erbB1 or erbB2, 81 patients treated): Twenty-two
- IC50 (NCI-H2009): 11.5 µM
- IC50 (SKOV3): 1.25 µM
- IC50 (CaLu3): 0.057 µM
- IC50 (NCI-H460): 9 µM
- IC50 (H1197): 7.78 µM
- IC50 (SKMEL28): 5.9 µM
- IC50 (Lovo): 3.39 µM
- IC50 (H1376): 3.34 µM

Structure (SMILES): Nc1ccn([C@@H]2O[C@H](CO)[C@@H](O)C2(F)F)c(=O)n1 [gemcitabine]
- clinical benefit response (cancer-related symptoms) [1]: 23.8%
- overall survival [1]: 5.6 months
